Data on one cell line can be found in the supplement of paper PMC10307832.

Common to all, as to assay: relative viability (nuclei count vs DMSO), 5 days (fraction); higher = more cells survive
Compound in one experiment: CC1=CC(=C(N1C2=CC=C(C=C2)Cl)C)C(=O)CN3CCCCC3 [IU1-47]
The essentials: (§1)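 In 1536-well plates, lung cancer cell lines rested overnight at 37 °C before five library-drug doses (not always all listed), √10 apart, were pinned onto vehicle-anchored plates. Nuclei were counted with MetaXpress from 4× Hoechst images taken after 5 days without medium change. Viability compares treated-well with vehicle-well nuclei as a median over plates, and plates needed control CV below 25% plus at least one doubling to pass.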

Compound in another experiment: Cc1nc(C(=O)NCC(=O)O)c(O)c2ccc(Oc3ccccc3)cc12 [FG-4592]
The essentials: as §1

Compound in the experiment “IU1-47 + Foretinib”: CC1=CC(=C(N1C2=CC=C(C=C2)Cl)C)C(=O)CN3CCCCC3 [IU1-47] + COc1cc2c(Oc3ccc(NC(=O)C4(C(=O)Nc5ccc(F)cc5)CC4)cc3F)ccnc2cc1OCCCN1CCOCC1 [Foretinib] (partner 0.25 µM)
The essentials: (§2)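 Lung cancer cell lines were pin-tool dosed in 1536-well plates on the day after seeding, with either a lone drug or a fixed anchor-drug dose plus five library-drug doses (not always all listed) in √10 steps. Nuclei were counted on 4× images after 5 days. Relative viability is the ratio of treated-well to vehicle-well nuclei counts, with each value a median of duplicate plates.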

Compound in the experiment “FG-4592 + Palbociclib”: Cc1nc(C(=O)NCC(=O)O)c(O)c2ccc(Oc3ccccc3)cc12 [FG-4592] + CC(=O)c1c(C)c2cnc(Nc3ccc(N4CCNCC4)cn3)nc2n(C2CCCC2)c1=O [Palbociclib] (partner 0.5 µM)
The essentials: as §2

In the case of UMC-11, the relative viability was determined as 1.01 in the experiment with IU1-47 (0.08 µM); 0.961 with IU1-47 (0.253 µM); 1.01 with IU1-47 (0.8 µM); 0.991 with IU1-47 (2.53 µM); 0.922 in the experiment with IU1-47 (8 µM); 0.952 with FG-4592 (0.08 µM). The relative viability with FG-4592 (0.253 µM) was determined as 0.928; with FG-4592 (0.8 µM) it was 0.806; with FG-4592 (2.53 µM), 1.07; with FG-4592 (8 µM), 0.804; with IU1-47 + Foretinib (first compound 0.08 µM), 1.13; with IU1-47 + Foretinib (first compound 0.253 µM), 0.99. Moreover, the relative viability in the experiment with IU1-47 + Foretinib (first compound 0.8 µM) was found to be 1.25; in the experiment with IU1-47 + Foretinib (first compound 2.53 µM), 1.15; in the experiment with IU1-47 + Foretinib (first compound 8 µM) it was 1.13; in the experiment with FG-4592 + Palbociclib (first compound 0.08 µM) it was 0.306; in the experiment with FG-4592 + Palbociclib (first compound 0.253 µM), 0.309; in the experiment with FG-4592 + Palbociclib (first compound 0.8 µM) it was 0.32. Besides, the figures for the relative viability in the experiment with FG-4592 + Palbociclib (first compound 2.53 µM) and with FG-4592 + Palbociclib (first compound 8 µM) were 0.331 and 0.285, respectively.
